Source: ChEMBL document CHEMBL1240358, “Activity of a new antipseudomonal cephalosporin, CXA-101 (FR264205), against carbapenem-resistant and multidrug-resistant Pseudomonas aeruginosa clinical strains” (2010)
Converted amounts (≈) assume the structure as drawn.

Experiments:
Format in all cases: functional
Pseudomonas aeruginosa [1] = assay: Antibacterial activity against carbapenem-resistant Pseudomonas aeruginosa isolate 1D5 SA1 harboring acquired beta-lactamase VIM-2 by broth microdilution method
Pseudomonas aeruginosa [2] = assay: Antibacterial activity against Pseudomonas aeruginosa assessed as percent nonsusceptible isolates by broth microdilution assay
Pseudomonas aeruginosa [3] = assay: Antibacterial activity against Pseudomonas aeruginosa PAO1 harboring acquired beta-lactamase OXA-144 by broth microdilution method
Pseudomonas aeruginosa [4] = assay: Antibacterial activity against carbapenem-resistant Pseudomonas aeruginosa isolate 1C2 PTOL1 harboring beta-lactamase OXA-17 by broth microdilution method
Pseudomonas aeruginosa [5] = assay: Antibacterial activity against carbapenem-resistant Pseudomonas aeruginosa isolate 3C8 GM1 harboring acquired beta-lactamase OXA-144 by broth microdilution method
Pseudomonas aeruginosa [6] = assay: Antibacterial activity against carbapenem-resistant Pseudomonas aeruginosa isolate 3C9 GM1 harboring acquired beta-lactamase OXA-144 by broth microdilution method
Pseudomonas aeruginosa [7] = assay: Antibacterial activity against Pseudomonas aeruginosa PAO1 harboring acquired beta-lactamase OXA-2 by broth microdilution method
Pseudomonas aeruginosa [8] = assay: Antibacterial activity against carbapenem-resistant Pseudomonas aeruginosa isolate 1E2 PpA1 harboring acquired beta-lactamase OXA-144 by broth microdilution method
Pseudomonas aeruginosa [9] = assay: Antibacterial activity against carbapenem-resistant Pseudomonas aeruginosa isolate 3D2 GM2 harboring acquired beta-lactamase BEL-3 by broth microdilution method
Pseudomonas aeruginosa [10] = assay: Antibacterial activity against carbapenem-resistant Pseudomonas aeruginosa isolate 3C1 VAL6 by broth microdilution method
Pseudomonas aeruginosa [11] = assay: Antibacterial activity against carbapenem-resistant Pseudomonas aeruginosa isolate 1C3 PTOL1 harboring acquired beta-lactamase OXA-17 by broth microdilution method
Pseudomonas aeruginosa [12] = assay: Antibacterial activity against carbapenem-resistant Pseudomonas aeruginosa isolate 1E1 PpA1 harboring acquired beta-lactamase OXA-144 by broth microdilution method
Pseudomonas aeruginosa [13] = assay: Antibacterial activity against Pseudomonas aeruginosa PAO1 by broth microdilution method
Pseudomonas aeruginosa [14] = assay: Antibacterial activity against carbapenem-resistant Pseudomonas aeruginosa isolate 1E3 PpA2 harboring acquired beta-lactamase OXA-101 by broth microdilution method
Pseudomonas aeruginosa [15] = assay: Antibacterial activity against carbapenem-resistant Pseudomonas aeruginosa isolate 1B2 RCA2 harboring acquired beta-lactamase PER-1 by broth microdilution method
Pseudomonas aeruginosa [16] = assay: Antibacterial activity against ticarcillin-susceptible Pseudomonas aeruginosa by broth microdilution method
Pseudomonas aeruginosa [17] = assay: Antibacterial activity against ciprofloxacin -susceptible Pseudomonas aeruginosa by broth microdilution method
Pseudomonas aeruginosa [18] = assay: Antibacterial activity against piperacillin- and tazobactam-susceptible Pseudomonas aeruginosa by broth microdilution method
Pseudomonas aeruginosa [19] = assay: Antibacterial activity against multidrug-resistant Pseudomonas aeruginosa isolated from patient with cystic fibrosis
Pseudomonas aeruginosa [20] = assay: Antibacterial activity against Pseudomonas aeruginosa isolated from non-intensive care unit patient by broth microdilution method
Pseudomonas aeruginosa [21] = assay: Antibacterial activity against piperacillin-resistant Pseudomonas aeruginosa by broth microdilution method
Pseudomonas aeruginosa [22] = assay: Antibacterial activity against imipenem-susceptible Pseudomonas aeruginosa by broth microdilution method
Pseudomonas aeruginosa [23] = assay: Antibacterial activity against Pseudomonas aeruginosa harboring low level of beta lactamase AmpC by broth microdilution method
Pseudomonas aeruginosa [24] = assay: Antibacterial activity against aztreonam-susceptible Pseudomonas aeruginosa by broth microdilution method
Pseudomonas aeruginosa [25] = assay: Antibacterial activity against ticarcillin-resistant Pseudomonas aeruginosa by broth microdilution method
Pseudomonas aeruginosa [26] = assay: Antibacterial activity against imipenem-resistant Pseudomonas aeruginosa by broth microdilution method
Pseudomonas aeruginosa [27] = assay: Antibacterial activity against aztreonam-resistant Pseudomonas aeruginosa by broth microdilution method
Pseudomonas aeruginosa [28] = assay: Antibacterial activity against piperacillin- and tazobactam-resistant Pseudomonas aeruginosa by broth microdilution method
Pseudomonas aeruginosa [29] = assay: Antibacterial activity against ciprofloxacin-resistant Pseudomonas aeruginosa by broth microdilution method
Pseudomonas aeruginosa [30] = assay: Antibacterial activity against ceftazidime-susceptible Pseudomonas aeruginosa by broth microdilution method
Pseudomonas aeruginosa [31] = assay: Antibacterial activity against ceftazidime-resistant Pseudomonas aeruginosa by broth microdilution method
Pseudomonas aeruginosa [32] = assay: Antibacterial activity against cephalosporin-resistant Pseudomonas aeruginosa clinical isolates
Pseudomonas aeruginosa [33] = assay: Antibacterial activity against gentamicin-resistant Pseudomonas aeruginosa by broth microdilution method
Pseudomonas aeruginosa [34] = assay: Antibacterial activity against cefepime-resistant Pseudomonas aeruginosa by broth microdilution method
Pseudomonas aeruginosa [35] = assay: Antibacterial activity against non-multidrug-resistant Pseudomonas aeruginosa by broth microdilution method
Pseudomonas aeruginosa [36] = assay: Antibacterial activity against gentamicin-susceptible Pseudomonas aeruginosa by broth microdilution method
Pseudomonas aeruginosa [37] = assay: Antibacterial activity against cefepime-susceptible Pseudomonas aeruginosa by broth microdilution method
Pseudomonas aeruginosa [38] = assay: Antibacterial activity against Pseudomonas aeruginosa isolated from intensive care unit patient by broth microdilution method
Pseudomonas aeruginosa [39] = assay: Antibacterial activity against Pseudomonas aeruginosa harboring high level of beta lactamase AmpC by broth microdilution method
Pseudomonas aeruginosa [40] = assay: Antibacterial activity against amikacin-susceptible Pseudomonas aeruginosa by broth microdilution method
Pseudomonas aeruginosa [41] = assay: Antibacterial activity against amikacin-resistant Pseudomonas aeruginosa by broth microdilution method
Pseudomonas aeruginosa [42] = assay: Antibacterial activity against tobramycin-susceptible Pseudomonas aeruginosa by broth microdilution method
Pseudomonas aeruginosa [43] = assay: Antibacterial activity against tobramycin-resistant Pseudomonas aeruginosa by broth microdilution method
Pseudomonas aeruginosa [44] = assay: Antibacterial activity against piperacillin-susceptible Pseudomonas aeruginosa by broth microdilution method
Pseudomonas aeruginosa [45] = assay: Antibacterial activity against meropenem-resistant Pseudomonas aeruginosa by broth microdilution method
Pseudomonas aeruginosa [46] = assay: Antibacterial activity against meropenem-susceptible Pseudomonas aeruginosa by broth microdilution method
Pseudomonas aeruginosa [47] = assay: Antibacterial activity against multidrug-resistant Pseudomonas aeruginosa by broth microdilution method
Pseudomonas aeruginosa [48] = assay: Antibacterial activity against Pseudomonas aeruginosa by broth microdilution method

CC(C)(O/N=C(\C(=O)N[C@@H]1C(=O)N2C(C(=O)[O-])=C(C[n+]3ccccc3)CS[C@H]12)c1csc(N)n1)C(=O)O [CEFTAZIDIME]
MIC (Pseudomonas aeruginosa [1]): 16 µg/mL (≈ 29.3 µM)
Activity (Pseudomonas aeruginosa [2]): 46.2%
MIC (Pseudomonas aeruginosa [3]): > 64 µg/mL
MIC (Pseudomonas aeruginosa [4]): > 64 µg/mL
MIC (Pseudomonas aeruginosa [5]): 32 µg/mL (≈ 58.5 µM)
MIC (Pseudomonas aeruginosa [6]): 32 µg/mL (≈ 58.5 µM)
MIC (Pseudomonas aeruginosa [7]): 4 µg/mL (≈ 7.32 µM)
MIC (Pseudomonas aeruginosa [8]): > 64 µg/mL
MIC (Pseudomonas aeruginosa [9]): > 64 µg/mL
MIC (Pseudomonas aeruginosa [10]): > 64 µg/mL
MIC (Pseudomonas aeruginosa [11]): > 64 µg/mL
MIC (Pseudomonas aeruginosa [12]): > 64 µg/mL
MIC (Pseudomonas aeruginosa [13]): 1 µg/mL (≈ 1.83 µM)
MIC (Pseudomonas aeruginosa [14]): 64 µg/mL (≈ 117 µM)
MIC (Pseudomonas aeruginosa [15]): > 64 µg/mL

Cn1c(N)c(NC(=O)NCCN)c[n+]1CC1=C(C(=O)O)N2C(=O)[C@@H](NC(=O)/C(=N\OC(C)(C)C(=O)[O-])c3nsc(N)n3)[C@H]2SC1 [CEFTOLOZANE]
MIC50 (Pseudomonas aeruginosa [16]): 1 µg/mL (≈ 1.5 µM)
MIC90 (Pseudomonas aeruginosa [16]): 2 µg/mL (≈ 3 µM)
MIC50 (Pseudomonas aeruginosa [17]): 1 µg/mL (≈ 1.5 µM)
MIC90 (Pseudomonas aeruginosa [17]): 2 µg/mL (≈ 3 µM)
MIC50 (Pseudomonas aeruginosa [18]): 1 µg/mL
MIC90 (Pseudomonas aeruginosa [18]): 2 µg/mL
MIC (Pseudomonas aeruginosa [19]): > 8 µg/mL
MIC50 (Pseudomonas aeruginosa [20]): 1 µg/mL (≈ 1.5 µM)
MIC90 (Pseudomonas aeruginosa [20]): 2 µg/mL (≈ 3 µM)
MIC (Pseudomonas aeruginosa [1]): 64 µg/mL (≈ 96 µM)
MIC50 (Pseudomonas aeruginosa [21]): 1 µg/mL (≈ 1.5 µM)
MIC90 (Pseudomonas aeruginosa [21]): 8 µg/mL (≈ 12 µM)
MIC50 (Pseudomonas aeruginosa [22]): 1 µg/mL (≈ 1.5 µM)
MIC90 (Pseudomonas aeruginosa [22]): 4 µg/mL (≈ 6 µM)
MIC50 (Pseudomonas aeruginosa [23]): 1 µg/mL (≈ 1.5 µM)
MIC90 (Pseudomonas aeruginosa [23]): 2 µg/mL (≈ 3 µM)
MIC50 (Pseudomonas aeruginosa [24]): 1 µg/mL (≈ 1.5 µM)
MIC90 (Pseudomonas aeruginosa [24]): 2 µg/mL (≈ 3 µM)
MIC50 (Pseudomonas aeruginosa [25]): 1 µg/mL (≈ 1.5 µM)
MIC90 (Pseudomonas aeruginosa [25]): 8 µg/mL (≈ 12 µM)
MIC50 (Pseudomonas aeruginosa [26]): 1 µg/mL (≈ 1.5 µM)
MIC90 (Pseudomonas aeruginosa [26]): 4 µg/mL (≈ 6 µM)
MIC50 (Pseudomonas aeruginosa [27]): 1 µg/mL (≈ 1.5 µM)
MIC90 (Pseudomonas aeruginosa [27]): 4 µg/mL (≈ 6 µM)
MIC (Pseudomonas aeruginosa [3]): 32 µg/mL (≈ 48 µM)
MIC50 (Pseudomonas aeruginosa [28]): 1 µg/mL
MIC90 (Pseudomonas aeruginosa [28]): 4 µg/mL
MIC50 (Pseudomonas aeruginosa [29]): 1 µg/mL (≈ 1.5 µM)
MIC90 (Pseudomonas aeruginosa [29]): 4 µg/mL (≈ 6 µM)
MIC50 (Pseudomonas aeruginosa [30]): 1 µg/mL (≈ 1.5 µM)
MIC90 (Pseudomonas aeruginosa [30]): 2 µg/mL (≈ 3 µM)
MIC (Pseudomonas aeruginosa [4]): 64 µg/mL (≈ 96 µM)
MIC (Pseudomonas aeruginosa [5]): 32 µg/mL (≈ 48 µM)
MIC (Pseudomonas aeruginosa [6]): 32 µg/mL (≈ 48 µM)
MIC50 (Pseudomonas aeruginosa [31]): 1 µg/mL (≈ 1.5 µM)
MIC90 (Pseudomonas aeruginosa [31]): 4 µg/mL (≈ 6 µM)
MIC50 (Pseudomonas aeruginosa [32]): 0.51 µg/mL (≈ 0.765 µM)
MIC90 (Pseudomonas aeruginosa [32]): 1 µg/mL (≈ 1.5 µM)
MIC (Pseudomonas aeruginosa [7]): 0.5 µg/mL (≈ 0.75 µM)
MIC50 (Pseudomonas aeruginosa [33]): 1 µg/mL (≈ 1.5 µM)
MIC90 (Pseudomonas aeruginosa [33]): 4 µg/mL (≈ 6 µM)
MIC50 (Pseudomonas aeruginosa [34]): 1 µg/mL (≈ 1.5 µM)
MIC90 (Pseudomonas aeruginosa [34]): 4 µg/mL (≈ 6 µM)
MIC50 (Pseudomonas aeruginosa [35]): 1 µg/mL (≈ 1.5 µM)
MIC90 (Pseudomonas aeruginosa [35]): 2 µg/mL (≈ 3 µM)
MIC (Pseudomonas aeruginosa [8]): 64 µg/mL (≈ 96 µM)
MIC50 (Pseudomonas aeruginosa [36]): 1 µg/mL (≈ 1.5 µM)
MIC90 (Pseudomonas aeruginosa [36]): 2 µg/mL (≈ 3 µM)
MIC (Pseudomonas aeruginosa [9]): 32 µg/mL (≈ 48 µM)
MIC50 (Pseudomonas aeruginosa [37]): 0.5 µg/mL (≈ 0.75 µM)
MIC90 (Pseudomonas aeruginosa [37]): 2 µg/mL (≈ 3 µM)
MIC (Pseudomonas aeruginosa [10]): 64 µg/mL (≈ 96 µM)
MIC50 (Pseudomonas aeruginosa [38]): 1 µg/mL (≈ 1.5 µM)
MIC90 (Pseudomonas aeruginosa [38]): 4 µg/mL (≈ 6 µM)
MIC (Pseudomonas aeruginosa [11]): 64 µg/mL (≈ 96 µM)
MIC50 (Pseudomonas aeruginosa [39]): 1 µg/mL (≈ 1.5 µM)
MIC90 (Pseudomonas aeruginosa [39]): 4 µg/mL (≈ 6 µM)
MIC50 (Pseudomonas aeruginosa [40]): 1 µg/mL (≈ 1.5 µM)
MIC90 (Pseudomonas aeruginosa [40]): 2 µg/mL (≈ 3 µM)
MIC50 (Pseudomonas aeruginosa [41]): 1 µg/mL (≈ 1.5 µM)
MIC90 (Pseudomonas aeruginosa [41]): 64 µg/mL (≈ 96 µM)
MIC50 (Pseudomonas aeruginosa [42]): 1 µg/mL (≈ 1.5 µM)
MIC90 (Pseudomonas aeruginosa [42]): 2 µg/mL (≈ 3 µM)
MIC (Pseudomonas aeruginosa [12]): 32 µg/mL (≈ 48 µM)
MIC50 (Pseudomonas aeruginosa [43]): 1 µg/mL (≈ 1.5 µM)
MIC90 (Pseudomonas aeruginosa [43]): 4 µg/mL (≈ 6 µM)
MIC50 (Pseudomonas aeruginosa [44]): 1 µg/mL (≈ 1.5 µM)
MIC90 (Pseudomonas aeruginosa [44]): 2 µg/mL (≈ 3 µM)
MIC (Pseudomonas aeruginosa [13]): 0.25 µg/mL (≈ 0.375 µM)
MIC50 (Pseudomonas aeruginosa [45]): 1 µg/mL (≈ 1.5 µM)
MIC90 (Pseudomonas aeruginosa [45]): 4 µg/mL (≈ 6 µM)
MIC50 (Pseudomonas aeruginosa [46]): 1 µg/mL (≈ 1.5 µM)
MIC90 (Pseudomonas aeruginosa [46]): 2 µg/mL (≈ 3 µM)
MIC (Pseudomonas aeruginosa [14]): 32 µg/mL (≈ 48 µM)
MIC (Pseudomonas aeruginosa [15]): 64 µg/mL (≈ 96 µM)
MIC50 (Pseudomonas aeruginosa [47]): 1 µg/mL (≈ 1.5 µM)
MIC90 (Pseudomonas aeruginosa [47]): 4 µg/mL (≈ 6 µM)
MIC50 (Pseudomonas aeruginosa [48]): 1 µg/mL (≈ 1.5 µM)
MIC90 (Pseudomonas aeruginosa [48]): 4 µg/mL (≈ 6 µM)

GENTAMICIN
Activity (Pseudomonas aeruginosa [2]): 58.9%

O=C(O)c1cn(C2CC2)c2cc(N3CCNCC3)c(F)cc2c1=O [CIPROFLOXACIN]
MIC (Pseudomonas aeruginosa [4]): 4 µg/mL (≈ 12.1 µM)
MIC (Pseudomonas aeruginosa [8]): 16 µg/mL (≈ 48.3 µM)
MIC (Pseudomonas aeruginosa [11]): 4 µg/mL (≈ 12.1 µM)
MIC (Pseudomonas aeruginosa [14]): 1 µg/mL (≈ 3.02 µM)

C[C@@H](O)[C@H]1C(=O)N2C(C(=O)O)=C(S[C@@H]3CN[C@H](C(=O)N(C)C)C3)[C@H](C)[C@H]12 [MEROPENEM]
MIC (Pseudomonas aeruginosa [1]): 16 µg/mL (≈ 41.7 µM)
Activity (Pseudomonas aeruginosa [2]): 52.1%
MIC (Pseudomonas aeruginosa [3]): 0.5 µg/mL (≈ 1.3 µM)
MIC (Pseudomonas aeruginosa [5]): 4 µg/mL (≈ 10.4 µM)
MIC (Pseudomonas aeruginosa [6]): 4 µg/mL (≈ 10.4 µM)
MIC (Pseudomonas aeruginosa [7]): 0.5 µg/mL (≈ 1.3 µM)
MIC (Pseudomonas aeruginosa [8]): 32 µg/mL (≈ 83.4 µM)
MIC (Pseudomonas aeruginosa [9]): 4 µg/mL (≈ 10.4 µM)
MIC (Pseudomonas aeruginosa [10]): 4 µg/mL (≈ 10.4 µM)
MIC (Pseudomonas aeruginosa [12]): 16 µg/mL (≈ 41.7 µM)
MIC (Pseudomonas aeruginosa [13]): 0.25 µg/mL (≈ 0.652 µM)
MIC (Pseudomonas aeruginosa [15]): 16 µg/mL (≈ 41.7 µM)
